Source: publication PMC10835127, “Viruses traverse the human proteome through peptide interfaces that can be biomimetically leveraged for drug discovery” (Proceedings of the National Academy of Sciences of the …, 2024)
Read-outs that look alike come from different tables or passages of the source.

Experiments:
[1] = system: HCV replicon; type: cell-based; conditions: for HCV Norm MEAN: normalized mean of HCV replicon readout
[2] = system: EBV; conditions: normalized mean of EBV replication readout
[3] = system: HIV1 strain NL4-3; type: cell-based; conditions: normalized mean of HIV1 replication readout
[4] = system: F. novicida (strain U112); type: cell-based
[5] = system: influenza A H1N1 virus; conditions: 48 hr post-treatment, A549

Substance	HCV Norm MEAN ([1]; peptide screen)	EBV Norm MEAN ([2]; peptide screen)	HIV1 Norm MEAN ([3]; peptide screen)	Francisella novicida Norm AUC [4]	Neuraminidase activity normalized to vehicle ([5]; 200 µM peptide)	Neuraminidase activity normalized to vehicle ([5]; 0,823 µM peptide)	Neuraminidase activity normalized to vehicle ([5]; 22,2 µM peptide)	Neuraminidase activity normalized to vehicle ([5]; 2,4691 µM peptide)	Neuraminidase activity normalized to vehicle ([5]; 7,4074 µM peptide)	Neuraminidase activity normalized to vehicle ([5]; 66,6667 µM peptide)	HCV Norm MEAN [1]	EBV Norm MEAN [2]	HIV1 Norm MEAN [3]	activity in HCV screen (in words) ([1]; 20 µM peptide, Huh7, replicon luciferase)
LERVIFPSVKIATLV [CPEP53]	0.3466	1.031	0.6568	0.5248	0,9303	0,9211	1,0363	1,008	1,0347	1,0977				
LGNIKGILGKKDKDG [CPEP51]	0.7895	0.7752	0.5462	1.389	1,0387	0,8902	0,9184	0,9673	0,9421	1,0486				
LGQGVSIEW [CPEP122]				1.0126	0,6921	1,0256	0,854	0,9073	0,9191	0,7889	0.594	0.7196	0.4311	
LHCYE [CPEP152]				0.5262	1,0605	0,8889	0,9121	0,8832	0,8045	1,0197	0.1555	1.379	1.7684	
LNSLF [CPEP143]				1.175	0,8484	0,6928	0,8423	0,7636	0,8039	0,8807	0.2751	1.147	0.7905	
LQQLL [CPEP130]				0.7754	1,0055	0,8445	0,933	0,8513	0,8415	1,0245	0.1679	1.354	1.886	
LRKRRKRL [CPEP145]				1.33	0,7911	0,8361	0,839	0,7253	0,7634	0,9146	0.1172	2.86	1.45	inhibition of RNA
LTEDRWNKPQKTKGH [CPEP141]	0.7797	0.7716	0.4657	1.234	0,9005	0,8505	0,9378	0,92	0,9289	0,9241				
LTMVI [CPEP12]				1.651	0,732	0,7557	0,8312	0,7112	0,7657	0,8968	0.1977	1.608	1.936	
MAGRSGDSDEELIR [CPEP91]	0.7752	0.5729	0.2767	1.031	0,8049	0,8065	0,8658	0,8956	0,8592	0,8689				
MNNQRKKAKNTPFNM [CPEP62]	0.5393	1.218	0.3968	0.8631	1,2311	1,1108	0,891	1,0767	0,9136	1,1387				
MSKKPGGPGKNRAVN [CPEP42]	0.9525	0.6277	0.4686	1.093	0,9312	0,9146	1,055	0,9945	0,9864	1,0215				
MSSDLRLTLLELVRRL [CPEP66]	1.3108	1.239	8.878	1.55	1,1231	1,0081	1,2015	1,0026	1,0851	1,0904				
NKVGSLQYLALAALI [CPEP60]	1.268	0.706	4.7165	1.045	0,117	0,8991	0,7636	1,0157	0,7801	0,247				
PDSDPQIPPPYVEPTA [CPEP138]	1.015	0.9708	0.606	0.9657	1,0087	1,063	1,1918	0,9934	1,0804	1,0379				
PKKKRKV [CPEP56]				1.16	0,9628	1,0162	0,9231	0,8416	0,8936	0,9527	0.1426	0.9787	0.9705	
PLDLS [CPEP54]				0.4272	1,1329	1,0199	0,844	1,1627	0,6425	1,0456	0.1712	1.129	1.112	
PPIPPPR [CPEP151]				1.288	1,016	0,9906	0,9273	0,9123	0,9111	0,9435	0.3254	1.55	0.669	
PPPPY [CPEP132]				0.9275	0,8244	0,8549	0,9192	0,87	0,8306	1,0078	0.2215	1.203	1.621	
PTAPP [CPEP49]				1.057	0,7922	0,6686	0,8389	0,6943	0,7716	0,9061	0.1885	0.9513	1.171	
PVHAGPIAP [CPEP87]				1.084	0,6355	1,0155	0,8043	0,8845	0,906	0,7025	0.2137	0.6567	0.4	
